Measured values from patent US20060188921A1, “Methods for diagnosing and treating systemic lupus erythematosus disease and compositions thereof” (Wyeth, priority 2001, published 2006).

Test system: whole kidney samples, approximately 11,000 murine genes
Assay: Kidney gene expression on oligonucleotide arrays in murine model of autoimmune kidney disease (untreated, rapamycin-treated, anti-B7-treated)
Type: in vivo, NZB/NZW F1 mice
Conditions: Example 2(A); normalized = difference in expression of less than five versus untreated asymptomatic mice
Procedure: NZB/NZW F1 (B/W) mice develop an autoimmune kidney disease that is analogous to human systemic erythematosus. Mice, aged at intervals from 12 weeks (asymptomatic) to 42 weeks (diseased) were chosen to mimic the clinical presentation of patients with established SLE. By seven months of age, mice begin to develop nephritis characterized by proteinuria, anti-DNA antibody production and histopathologic changes in the kidney. […]
Labeled RNA was prepared from clones containing a T7 RNA polymerase promoter site by incorporating labeled ribonucleotides in an in vitro transcription (IVT) reaction. […] RNA was concentrated and then quantitated by spectrophotometry. […]
The labeled and fragmented RNA probes were diluted in 1×MES buffer, BIO948, Bio C, B cre, 100 μg/ml herring sperm DNA, and 50 μg/ml acetylated BSA. […] When biotin-labeled RNA was used, the hybridized RNA was stained with a streptavidin-phycoerythrin conjugate (Molecule Probes, Eugene, Oreg.) prior to reading. […] The arrays were again washed and stained with streptavidin SSPE-T prior to being reading. The arrays were read using a scanning confocal microscope made for Affymetrix by Molecular Dynamics (commercially available through Affymetrix, Santa Clara, Calif.). […]

CO[C@H]1C[C@@H]2CC[C@@H](C)[C@@](O)(O2)C(=O)C(=O)N2CCCC[C@H]2C(=O)O[C@H]([C@H](C)C[C@@H]2CC[C@@H](O)[C@H](OC)C2)CC(=O)[C@H](C)/C=C(\C)[C@@H](O)[C@@H](OC)C(=O)[C@H](C)C[C@H](C)/C=C/C=C/C=C/1C [rapamycin]
number of genes not normalized by rapamycin treatment: 23 genes
